# Laboratory results: US8318950B2, “N-acyl amino acid derivatives, a method for the preparation thereof, a pharmaceutical composition and use thereof as anti-allergic, anti-inflammatory and hypolipidemic agents” (Otkrytoe Aktsionernoe Obschestvo-Otechestvennye Lekarstva, priority 2005, dated 2012)
# Key:
# [1] = test system: hypercholesterolemia in Wistar rats; test: Model of hypercholesterolemia in rats (oral cholesterol loading); format: in vivo, rat
# Experimental: The study was carried out on male Wistar rats weighing 200±20 g. Hyperlipidemia was induced by oral administration of cholesterol loading, oily cholesterol suspension:
# olive oil (Acorsa, Spain)—5 ml/kg weigh of animals;
# cholesterol (Sigma, USA)—1 g/kg weight;
# sodium cholate (Sigma, USA)—100 mg/kg weight.
# As a reference preparation, the preparation from the group of statines “Mevacor” (Lovastatine) manufactured by the firm Merck Sharp & Dohn was used at dose 40 mg/kg. Cholesterol suspension was administered daily in the morning for 10 days. The compounds tested (at dose 500 μg/kg) and the reference preparation (at dose 40 mg/kg) were administered to the animals togester with cholesterol suspension for 10 days. All the animals received a standard briquetted forage.
# The animals were divided into the following groups:
# “Control”—intact animals (n=5);
# “Cholesterol”—rats that orally received cholesterol loading (n=10);
# “Lovastatine”—rats that orally received cholesterol loading and Lovastatine (n=10);
# “Compound IV”—rats that orally received cholesterol loading and the tested compound IV (n=10).
# Blood was sampled at days 5, 8 and 10 of the experiment.
# Statistical processing of the hypolipidemic action data of the tested substances was carried out with regard to the “Cholesterol” group (Table 13).
# Experimental groups included:
# 1) “Cholesterol”—rats orally administered with oily cholesterol suspension for 10 days;
# 2) “Compound IV”—rats orally administered with oily cholesterol suspension and the tested compound N;
# 3) “Compound IV—1Na”—rats orally administered with oily cholesterol suspension and the tested mono-sodium salt of compound N;
# 4) “Compound IV—2Na”—rats orally administered with oily cholesterol suspension and the tested di-sodium salt of compound N;
# 5) “Compound V—1Na”—rats orally administered with oily cholesterol suspension and the tested mono-sodium salt of the compound V;
# 6) “Compound III—1Na”—rats orally administered with oily cholesterol suspension and the tested mono-sodium salt of the compound III;
# 7) “Compound II—1Na”—rats orally administered with oily cholesterol suspension and the tested mono-sodium salt of the compound II;
# 8) “Sim”—rats orally administered with oily cholesterol suspension and Simvastatine;
# 9) control—intact rats before beginning the test.
# At day 10 of the test blood samples were taken following decapitation of the animals. The animals fasted for 12 hours prior to decapitation.
# Blood serum total cholesterol, triglycerides and high density lipoprotein cholesterol (HDLC) were measured. Low and very low density lipoprotein cholesterol was calculated by the difference between total cholesterol and HDL cholesterol.
# Blood serum total cholesterol and triglycerides were determined using the enzymatic methods.
# Cholesterol level in high density lipoproteins (α-LP) was determined using the precipitation method of LDL and VLDL with phosphotungstic acid and magnesium ions.
# Data in the tables are presented as a mean value±standard error. Significance of differences between the groups “cholesterol” and “preparation.” was assessed by the two-sampled Student's t-test.
# [2] = test system: allergic rhinitis in guinea pigs; test: Model of allergic rhinitis in guinea pigs (nasal wash-off cytology); format: in vivo, guinea pig; details: 0.1% solution, inhalations daily for 6 days
# Experimental: The model of allergic rhinitis in guinea pigs was used.
# Guinea pigs were immunized according to the certain scheme for 1.5-2 months (Hutson P. A., Church M. K. et al. 1988): the animals were first immunized by intraperitoneal administration of ovalbumin at dose 10 mg/kg at 7-day interval (twice), then ovalbumin solution was inhaled to the guinea pigs using the Pari nebulizer at increasing concentration beginning from 0.1% and reaching 1% at 4-day intervals between inhalations. The last ovalbumin dose was administered into the nasal passages using a micropipette. 24 hours post the last ovalbumin administration nasal washing was collected (through a system of special tubes) and changes in nasal mucosa was assessed using a complex of histological and cytological methods. The compounds tested (0.1% solution) were daily administered in the form of inhalations using nebulizing device for 6 days; at day 6 of administration, antigen (OA) challenge was performed. Nasal wash-off was obtained 24 hours post challenge.
# [3] = day 5 of the experiment (Table 15)
# [4] = day 8 of the experiment (Table 16)
# [5] = day 10 of the experiment (Table 17)
# [6] = dose 500 μg/kg, vs Cholesterol group
# [7] = oral 10 days with cholesterol loading, tested compound 500 μg/kg, reference 40 mg/kg (Table 13)
compound,measurement,setting,value
"O=C(O)CCCC(=O)N[C@@H](Cc1c[nH]cn1)C(=O)O [Compound IV, N^α-glutaryl-L-histidine]","Total cholesterol, HDL",[1]; [3],35.8 ± 1.2 mg/100 ml
same,"Total cholesterol, LDL + VLDL",[1]; [3],48.5 ± 4.5 mg/100 ml
same,"Triglycerides, Serum",[1]; [3],120.6 ± 8.9 mg/100 ml
same,"Total cholesterol, Serum","[1]; day 5 of the experiment (Table 15), oral with oily cholesterol suspension",84.2 ± 3.9 mg/100 ml
same,"Total cholesterol, HDL",[1]; [4],35.9 ± 1.2 mg/100 ml
same,"Total cholesterol, LDL + VLDL",[1]; [4],67.3 ± 8.7 mg/100 ml
same,"Total cholesterol, Serum",[1]; [4],103.3 ± 8.1 mg/100 ml
same,"Triglycerides, Serum",[1]; [4],154.2 ± 11.4 mg/100 ml
same,"Total cholesterol, HDL",[1]; [5],36.5 ± 0.9 mg/100 ml
same,"Total cholesterol, LDL + VLDL",[1]; [5],58.7 ± 5.3 mg/100 ml
same,"Total cholesterol, Serum",[1]; [5],95.2 ± 5.4 mg/100 ml
same,"Triglycerides, Serum",[1]; [5],143.3 ± 8.9 mg/100 ml
same,lowering LDL cholesterol,[1]; [6],29.8%
same,lowering hepatic cholesterol,[1]; [6],22.7%
same,lowering hepatic triglycerides,[1]; [6],19%
same,lowering serum total cholesterol,[1]; [6],19.5%
same,"Total cholesterol, CHDL",[1]; [7],50.5 ± 1.3 mg/100 ml
same,"Total cholesterol, CLLD + CLVLD",[1]; [7],46.1 ± 0.9 mg/100 ml
same,"Total cholesterol, Liver",[1]; [7],2.78 ± 0.28 mg/g of tissue
same,"Total cholesterol, Serum",[1]; [7],96.6 ± 5.7 mg/100 ml
same,"Triglycerids, Liver",[1]; [7],5.53 ± 0.19 mg/g of tissue
same,"Triglycerids, Serum",[1]; [7],95.1 ± 7.9 mg/100 ml
same,Absolute number of Macrophags in nasal wash-off,[2],6.1 ± 0.75 in 1 μl
same,Absolute number of Neutrophils in nasal wash-off,[2],3.1 ± 1.02 in 1 μl
same,Citogram of nasal wash-off: Lymphocytes,[2],5.7 ± 1.54%
same,Cytosis (absolute number of cells in 1 μl) in nasal wash-off,[2]; wash-off 24 hours post challenge,43.7 ± 6.65°* cells in 1 μl
